Reference: DBAASP
Values after ≈ are worked out from the molar mass of the structure shown. Values joined by “and” are separate entries in the source; they are usually repeats but may differ in a detail not shown here. Equal values may be shown once. Values belong to the molecule of their own block, whether it stands above or below them.

Tests used:
Test in all cases: ≥ marks a high value that may be exact or a test limit, other limits are often not marked, values filed in µg/mL are converted to µM
Escherichia coli BL21 = test system: Escherichia coli BL21
[1] = test system: Pseudomonas aeruginosa PAO1
[2] = test system: Streptococcus pyogenes M1T1 5448
[3] = test system: Candida albicans NCYC 1467
[4] = test system: Enterococcus faecalis NCTC 12697
[5] = test system: Escherichia coli NCTC 10418
[6] = test system: Klebsiella pneumoniae ATCC 43816
[7] = test system: Pseudomonas aeruginosa ATCC 27853
[8] = test system: Staphylococcus aureus NCTC 10788
[9] = test system: Staphylococcus aureus NCTC 12493
Aureobasidium pullulans = test system: Aureobasidium pullulans
[10] = test system: Candida albicans ATCC 10231
[11] = test system: Corynebacterium glutamicum ATCC 13032
[12] = test system: Escherichia coli ATCC 25922
[13] = test system: Staphylococcus aureus ATCC 9144
Escherichia coli K-12 = test system: Escherichia coli K-12
[14] = test system: Pseudomonas aeruginosa PA214
[15] = test system: Pseudomonas aeruginosa PA287
[16] = test system: Staphylococcus aureus SH1000
[17] = test system: Acinetobacter baumannii ATCC 19606
[18] = test system: Candida albicans ATCC 90028
[19] = test system: Cryptococcus neoformans ATCC 208821
[20] = test system: Klebsiella pneumoniae ATCC 700603
[21] = test system: Staphylococcus aureus ATCC 43300
[22] = test system: Acinetobacter baumannii 7226/16
[23] = test system: Klebsiella pneumoniae ESBL 344/17
[24] = test system: Pseudomonas aeruginosa 522/17
[25] = test system: Staphylococcus aureus 1399/17
[26] = test system: Staphylococcus aureus ATCC 33591
[27] = test system: Staphylococcus aureus SG511
[28] = test system: Candida albicans FRR 5580
[29] = test system: Pseudomonas aeruginosa ATCC 9027
[30] = test system: Staphylococcus aureus ATCC 25923
Staphylococcus aureus = test system: Staphylococcus aureus

MIC [16]: ≥ 100 µM
Structure (SMILES): CC[C@H](C)[C@H](NC(=O)[C@H](CCCCN)NC(=O)[C@H](CC(C)C)NC(=O)[C@H](CC(C)C)NC(=O)[C@@H](N)CCCCN)C(=O)N[C@H](C(=O)N[C@@H](CCCCN)C(=O)N[C@@H](CCCCN)C(=O)N[C@H](C(=O)N[C@H](C(=O)NCC(=O)N[C@@H](C)C(=O)N[C@@H](CC(C)C)C(=O)NCC(N)=O)C(C)C)C(C)C)C(C)C [KLLKIVKKVVGALG]

MIC [17]: 1 µM (≈ 1.51 µg/mL)
MIC [18]: 11 µM (≈ 16.6 µg/mL)
MIC [19]: 3 µM (≈ 4.52 µg/mL)
MIC [12]: 1 µM (≈ 1.51 µg/mL)
MIC [20]: 5 µM (≈ 7.54 µg/mL)
MIC [7]: 21 µM (≈ 31.6 µg/mL)
MIC [21]: 3 µM (≈ 4.52 µg/mL)
MIC [16]: 10 µM (≈ 15.1 µg/mL)
Structure (SMILES): CC(C)C[C@H](NC(=O)[C@H](C)NC(=O)CNC(=O)[C@H](CC(C)C)NC(=O)[C@H](CC(C)C)NC(=O)[C@H](CCCCN)NC(=O)[C@H](CCCCN)NC(=O)[C@H](CC(C)C)NC(=O)[C@H](CC(C)C)NC(=O)[C@H](CCCCN)NC(=O)[C@H](CC(C)C)NC(=O)[C@H](CC(C)C)NC(=O)[C@@H](N)CCCCN)C(=O)NCC(N)=O [KLLKLLKKLLGALG]

MIC [22]: 8 µM and 12.5 µM
MIC [23]: 8 µM and 6.2 µM
MIC [24]: 16 µM (≈ 37.1 µg/mL)
MIC [25]: 4 µM and 6.2 µM
MIC [26]: 8 µM (≈ 18.6 µg/mL)
MIC [27]: 0.5 µM (≈ 1.16 µg/mL)
Structure (SMILES): CC[C@H](C)[C@H](NC(=O)[C@H](CCCN=C(N)N)NC(=O)[C@@H](NC(=O)[C@@H]1CCCN1C(=O)[C@@H]1CCCN1C(=O)[C@H](CCCN=C(N)N)NC(=O)[C@H](CCCN=C(N)N)NC(=O)[C@H](Cc1ccccc1)NC(=O)[C@@H]1CCCN1C(=O)[C@H](CC(C)C)NC(=O)[C@H](CCCN=C(N)N)NC(=O)[C@H](Cc1ccccc1)NC(=O)[C@H](CCCN=C(N)N)NC(=O)[C@H](CCCN=C(N)N)NC(=O)[C@H](Cc1ccccc1)NC(=O)[C@@H](N)CCCN=C(N)N)[C@@H](C)CC)C(=O)N[C@@H](Cc1cnc[nH]1)C(N)=O [RFRRFRLPFRRPPIRIH]

MIC [28]: ≥ 61.1 µM
MIC [29]: 30.6 µM (≈ 32 µg/mL)
Structure (SMILES): NCCCC[C@H](NC(=O)[C@H](Cc1c[nH]c2ccccc12)NC(=O)[C@H](Cc1c[nH]c2ccccc12)NC(=O)[C@@H](N)CCCN=C(N)N)C(=O)N[C@@H](Cc1c[nH]c2ccccc12)C(=O)N[C@@H](Cc1c[nH]c2ccccc12)C(N)=O [RWWKWW]

MIC [28]: ≥ 45.1 µM
MIC [12]: 5.64 µM (≈ 7.99 µg/mL)
MIC [29]: 22.5 µM (≈ 32 µg/mL)
MIC [30]: 5.64 µM (≈ 7.99 µg/mL)
MIC (Staphylococcus aureus): 2.82 µM (≈ 4 µg/mL)
Structure (SMILES): NCCCC[C@H](NC(=O)[C@H](Cc1c[nH]c2ccccc12)NC(=O)[C@H](Cc1c[nH]c2ccccc12)NC(=O)[C@H](CCCN=C(N)N)NC(=O)[C@H](Cc1c[nH]c2ccccc12)NC(=O)[C@@H](N)Cc1c[nH]c2ccccc12)C(=O)N[C@@H](Cc1c[nH]c2ccccc12)C(=O)N[C@@H](Cc1c[nH]c2ccccc12)C(N)=O [WWRWWKWW]

More lines, now with the values behind:

Structure (SMILES): CC[C@H](C)[C@H](NC(=O)[C@H](CCCCN)NC(=O)[C@H](CCCCN)NC(=O)[C@H](Cc1c[nH]c2ccccc12)NC(=O)[C@H](CCC(=O)O)NC(=O)[C@H](CC(N)=O)NC(=O)[C@@H](NC(=O)[C@@H](NC(=O)[C@H](CCCCN)NC(=O)[C@H](CCCCN)NC(=O)[C@H](CC(C)C)NC(=O)[C@H](CCCN=C(N)N)NC(=O)[C@H](CC(N)=O)NC(=O)[C@H](Cc1ccccc1)NC(=O)[C@@H](NC(=O)[C@H](CCCCN)NC(=O)[C@H](CCC(=O)O)NC(=O)[C@@H](NC(=O)CNC(=O)[C@H](C)N)[C@@H](C)O)[C@@H](C)CC)[C@@H](C)O)[C@@H](C)CC)C(=O)N[C@@H](C)C(=O)N[C@@H](CCCCN)C(=O)N[C@@H](CCCN=C(N)N)C(=O)N[C@@H](C)C(=O)N[C@@H](Cc1c[nH]c2ccccc12)C(=O)O [AGTEKIFNRLKKTINEWKKIAKRAW]
MIC (Escherichia coli BL21): 4 µM (≈ 12.1 µg/mL)
MIC [1]: 16 µM (≈ 48.5 µg/mL)
MIC [2]: 8 µM (≈ 24.2 µg/mL)

Structure (SMILES): CC[C@H](C)[C@@H]1NC(=O)[C@H](C)NC(=O)[C@@H](NC(=O)[C@H](Cc2ccccc2)NC(=O)[C@@H](NC(=O)[C@H](CCCCN)NC(=O)[C@@H]2CCCN2C(=O)[C@H](CC(C)C)NC(=O)[C@H](Cc2ccccc2)NC(=O)[C@H](CCCCN)NC(=O)[C@H](C)NC(=O)[C@H](C)NC(=O)[C@H](CC(C)C)NC(=O)CNC(=O)[C@H](C)NC(=O)[C@@H](NC(=O)[C@H](CC(C)C)NC(=O)[C@@H]2CCCN2C(=O)[C@H](CC(C)C)NC(=O)[C@@H](N)Cc2ccccc2)[C@@H](C)CC)[C@@H](C)CC)CSSC[C@@H](C(=O)O)NC(=O)[C@H](CCCCN)NC(=O)[C@H](CCCCN)NC(=O)[C@H]([C@@H](C)O)NC1=O [FLPLIAGLAAKFLPKIFCAITKKC]
MIC [3]: 4 µM (≈ 10.4 µg/mL)
MIC [4]: 8 µM (≈ 20.8 µg/mL)
MIC [5]: 8 µM (≈ 20.8 µg/mL)
MIC [6]: 16 µM (≈ 41.7 µg/mL)
MIC [7]: 32 µM (≈ 83.4 µg/mL)
MIC [8]: 4 µM (≈ 10.4 µg/mL)
MIC [9]: 16 µM (≈ 41.7 µg/mL)

Structure (SMILES): CC(C)C[C@H](NC(=O)[C@H](CCC(N)=O)NC(=O)[C@H](CCC(N)=O)NC(=O)[C@H](C)NC(=O)CNC(=O)[C@H](C)NC(=O)[C@H](CCCCN)NC(=O)CNC(=O)[C@@H](NC(=O)[C@H](CCC(N)=O)NC(=O)[C@H](CCCCN)NC(=O)[C@H](CCCCN)NC(=O)[C@H](CC(C)C)NC(=O)[C@H](Cc1ccc(O)cc1)NC(=O)[C@H](CCCCN)NC(=O)[C@H](C)NC(=O)CNC(=O)[C@H](C)NC(=O)[C@H](CCCCN)NC(=O)[C@H](Cc1ccccc1)NC(=O)[C@H](CC(C)C)NC(=O)[C@H](CO)NC(=O)[C@H](CO)NC(=O)[C@H](Cc1ccccc1)NC(=O)CN)C(C)C)C(N)=O [GFSSLFKAGAKYLKKQVGKAGAQQL]
MIC [3]: ≥ 64 µM
MIC [4]: 16 µM (≈ 42 µg/mL)
MIC [5]: 8 µM (≈ 21 µg/mL)
MIC [6]: ≥ 128 µM
MIC [7]: 16 µM (≈ 42 µg/mL)
MIC [8]: 16 µM (≈ 42 µg/mL)
MIC [9]: ≥ 64 µM

Structure (SMILES): CC(C)[C@H](NC(=O)[C@H](CCCCN)NC(=O)[C@H](C)NC(=O)[C@@H](NC(=O)[C@@H](NC(=O)[C@H](CCCN=C(N)N)NC(=O)[C@H](C)NC(=O)[C@H](Cc1c[nH]c2ccccc12)NC(=O)[C@H](Cc1c[nH]c2ccccc12)NC(=O)CN)[C@@H](C)O)C(C)C)C(=O)N[C@@H](CCCN=C(N)N)C(=O)N[C@@H](CCCCN)C(N)=O [GWWARTVAKVRK]
MIC (Aureobasidium pullulans): ≥ 50 µM
MIC [10]: 25 µM (≈ 36.4 µg/mL)
MIC [11]: 1.6 µM (≈ 2.33 µg/mL)
MIC [12]: 6.3 µM (≈ 9.18 µg/mL)
MIC [7]: 12.5 µM (≈ 18.2 µg/mL)
MIC [13]: ≥ 50 µM

Structure (SMILES): C[C@H](NC(=O)[C@H](C)NC(=O)[C@H](Cc1ccccc1)NC(=O)[C@H](C)NC(=O)[C@H](C)NC(=O)[C@H](Cc1c[nH]c2ccccc12)NC(=O)[C@H](C)NC(=O)[C@H](CCCCN)NC(=O)[C@H](C)NC(=O)[C@H](Cc1ccccc1)NC(=O)[C@H](C)NC(=O)[C@H](C)NC(=O)[C@H](CCCCN)NC(=O)[C@H](CCCCN)NC(=O)[C@H](CCCCN)NC(=O)[C@H](CCCCN)NC(=O)[C@@H](N)CCCCN)C(N)=O [KKKKKAAFAKAWAAFAA]
MIC (Escherichia coli K-12): 6.3 µM (≈ 11.6 µg/mL)
MIC [14]: 25 µM (≈ 45.9 µg/mL)
MIC [15]: ≥ 50 µM
MIC [1]: 25 µM (≈ 45.9 µg/mL)
